# Data as given in patent publication US8030443B2, “Squamous cell carcinoma antigen-derived peptide binding to HLA-A24 molecule” (Kurume University, priority 2005, dated 2011).
# Tested on: peptide-specific IgG in sera of cancer patients and healthy donors
# Experiment: Measurement of anti-peptide IgG in plasma by LUMINEX multiplexed flow cytometric assay
# Assay type: binding, human
# Method: The levels of anti-peptide immunoglobulin G (IgG) were measured by the LUMINEX™ system (multiplexed flow cytometric assay) as previously reported (Komatsu N, Shichijo S, Nakagawa M, Itoh K. New multiplexed flow cytometric assay to measure anti-peptide antibody: a novel tool for monitoring immune responses to peptides used for immunization. Scand J Clin Lab Invest 2004; 64:1-11). In brief, plasma was incubated with 25 μl of peptide-coupled color-coded beads for 2 hr at room temperature on a plate shaker. After incubation, the mixture was washed with a vacuum manifold apparatus and incubated with 100 μl of biotinylated goat anti-human IgG (γ chain-specific)(BA-3080, Vector Laboratories, Burlingame, Calif., USA) for 1 h at room temperature. The plate was then washed, followed by the addition of 100 μl of streptavidin-PE (S-866, Molecular Probes, Eugene, Oreg., USA) into wells, and was incubated for 30 min at room temperature on a plate shaker. The bound beads were washed three times followed by the addition of 100 μl of Tween-PBS into each well. Fifty μl of sample was detected using the LUMINEX™ system (multiplexed flow cytometric assay). To confirm the specificity of IgG to a SCCA peptide, sample plasma was cultured in plates coated with a corresponding SCCA peptide, or with an irrelevant SCCA peptide. After the operation was repeated three times, the levels of the corresponding SCCA peptide-specific IgG in the resulting supernatant were determined by the LUMINEX™ system (multiplexed flow cytometric assay).
# These 9 SCCA-derived peptides were screened based on their ability to be recognized by IgG in cancer patients. Peptide-specific IgG was measured by a multiplexed flow cytometric assay (LUMINEX™ (multiplexed flow cytometric assay)). The plasma samples were derived from 35 uterine cervical SCC patients, 10 breast adenocarcinoma patients, 10 pancreatic adenocarcinoma patients, 10 gastric adenocarcinoma, and 6 colon adenocarcinoma patients. The level of fluorescence intensity was judged to be significant when exceeded 100 at an 1/100 dilution.
sequence,measurement,setting,value
"EFHCNHPFL (SCCA 362-370 peptide) [SCCA-derived peptide, position 362-370]",Total: healthy donors with significant peptide-reactive IgG / donors tested,"10 healthy donors, significant when fluorescence intensity exceeded 100 at 1/100 dilution",1/10
same,Total: cancer patients with significant peptide-reactive IgG / patients tested,"71 cancer patients, significant when fluorescence intensity exceeded 100 at 1/100 dilution",10/71
same,Fluorescence intesity,"serum of Breast Ca. patient #36, 1:100 dilution",10
same,Fluorescence intesity,"serum of Breast Ca. patient #37, 1:100 dilution",24
same,Fluorescence intesity,"serum of Breast Ca. patient #38, 1:100 dilution",8
same,Fluorescence intesity,"serum of Breast Ca. patient #39, 1:100 dilution",11
same,Fluorescence intesity,"serum of Breast Ca. patient #40, 1:100 dilution",7
same,Fluorescence intesity,"serum of Breast Ca. patient #41, 1:100 dilution",215
same,Fluorescence intesity,"serum of Breast Ca. patient #42, 1:100 dilution",19
same,Fluorescence intesity,"serum of Breast Ca. patient #43, 1:100 dilution",10
same,Fluorescence intesity,"serum of Breast Ca. patient #44, 1:100 dilution",0
same,Fluorescence intesity,"serum of Breast Ca. patient #45, 1:100 dilution",20
same,Fluorescence intesity,"serum of Colon Ca. patient #66, 1:100 dilution",0
same,Fluorescence intesity,"serum of Colon Ca. patient #67, 1:100 dilution",0
same,Fluorescence intesity,"serum of Colon Ca. patient #68, 1:100 dilution",0
same,Fluorescence intesity,"serum of Colon Ca. patient #69, 1:100 dilution",0
same,Fluorescence intesity,"serum of Colon Ca. patient #70, 1:100 dilution",1
same,Fluorescence intesity,"serum of Colon Ca. patient #71, 1:100 dilution",19
same,Fluorescence intesity,"serum of Gastric Ca. patient #56, 1:100 dilution",0
same,Fluorescence intesity,"serum of Gastric Ca. patient #57, 1:100 dilution",0
same,Fluorescence intesity,"serum of Gastric Ca. patient #58, 1:100 dilution",6
same,Fluorescence intesity,"serum of Gastric Ca. patient #59, 1:100 dilution",10
same,Fluorescence intesity,"serum of Gastric Ca. patient #60, 1:100 dilution",0
same,Fluorescence intesity,"serum of Gastric Ca. patient #61, 1:100 dilution",1
same,Fluorescence intesity,"serum of Gastric Ca. patient #62, 1:100 dilution",0
same,Fluorescence intesity,"serum of Gastric Ca. patient #63, 1:100 dilution",0
same,Fluorescence intesity,"serum of Gastric Ca. patient #64, 1:100 dilution",0
same,Fluorescence intesity,"serum of Gastric Ca. patient #65, 1:100 dilution",0
same,Fluorescence intesity,"serum of Healthy Donor #1, 1:100 dilution",0
same,Fluorescence intesity,"serum of Healthy Donor #2, 1:100 dilution",37
same,Fluorescence intesity,"serum of Healthy Donor #3, 1:100 dilution",0
same,Fluorescence intesity,"serum of Healthy Donor #4, 1:100 dilution",0
same,Fluorescence intesity,"serum of Healthy Donor #5, 1:100 dilution",0
same,Fluorescence intesity,"serum of Healthy Donor #6, 1:100 dilution",0
same,Fluorescence intesity,"serum of Healthy Donor #7, 1:100 dilution",0
same,Fluorescence intesity,"serum of Healthy Donor #8, 1:100 dilution",283
same,Fluorescence intesity,"serum of Healthy Donor #9, 1:100 dilution",29
same,Fluorescence intesity,"serum of Healthy Donor #10, 1:100 dilution",0
same,Fluorescence intesity,"serum of Pancreas Ca. patient #46, 1:100 dilution",0
same,Fluorescence intesity,"serum of Pancreas Ca. patient #47, 1:100 dilution",1
same,Fluorescence intesity,"serum of Pancreas Ca. patient #48, 1:100 dilution",339
same,Fluorescence intesity,"serum of Pancreas Ca. patient #49, 1:100 dilution",0
same,Fluorescence intesity,"serum of Pancreas Ca. patient #50, 1:100 dilution",0
same,Fluorescence intesity,"serum of Pancreas Ca. patient #51, 1:100 dilution",0
same,Fluorescence intesity,"serum of Pancreas Ca. patient #52, 1:100 dilution",104
same,Fluorescence intesity,"serum of Pancreas Ca. patient #53, 1:100 dilution",0
same,Fluorescence intesity,"serum of Pancreas Ca. patient #54, 1:100 dilution",6
same,Fluorescence intesity,"serum of Pancreas Ca. patient #55, 1:100 dilution",0
same,Fluorescence intesity,"serum of Uterine cervical Ca. patient #1, 1:100 dilution",0
same,Fluorescence intesity,"serum of Uterine cervical Ca. patient #2, 1:100 dilution",0
same,Fluorescence intesity,"serum of Uterine cervical Ca. patient #3, 1:100 dilution",0
same,Fluorescence intesity,"serum of Uterine cervical Ca. patient #4, 1:100 dilution",0
same,Fluorescence intesity,"serum of Uterine cervical Ca. patient #5, 1:100 dilution",3
same,Fluorescence intesity,"serum of Uterine cervical Ca. patient #6, 1:100 dilution",611
same,Fluorescence intesity,"serum of Uterine cervical Ca. patient #7, 1:100 dilution",11
same,Fluorescence intesity,"serum of Uterine cervical Ca. patient #8, 1:100 dilution",49
same,Fluorescence intesity,"serum of Uterine cervical Ca. patient #9, 1:100 dilution",90
same,Fluorescence intesity,"serum of Uterine cervical Ca. patient #10, 1:100 dilution",15
same,Fluorescence intesity,"serum of Uterine cervical Ca. patient #11, 1:100 dilution",28
same,Fluorescence intesity,"serum of Uterine cervical Ca. patient #12, 1:100 dilution",37
same,Fluorescence intesity,"serum of Uterine cervical Ca. patient #13, 1:100 dilution",25
same,Fluorescence intesity,"serum of Uterine cervical Ca. patient #14, 1:100 dilution",17
same,Fluorescence intesity,"serum of Uterine cervical Ca. patient #15, 1:100 dilution",106
same,Fluorescence intesity,"serum of Uterine cervical Ca. patient #16, 1:100 dilution",191
same,Fluorescence intesity,"serum of Uterine cervical Ca. patient #17, 1:100 dilution",56
same,Fluorescence intesity,"serum of Uterine cervical Ca. patient #18, 1:100 dilution",50
same,Fluorescence intesity,"serum of Uterine cervical Ca. patient #19, 1:100 dilution",48
same,Fluorescence intesity,"serum of Uterine cervical Ca. patient #20, 1:100 dilution",104
same,Fluorescence intesity,"serum of Uterine cervical Ca. patient #21, 1:100 dilution",22
same,Fluorescence intesity,"serum of Uterine cervical Ca. patient #22, 1:100 dilution",27
same,Fluorescence intesity,"serum of Uterine cervical Ca. patient #23, 1:100 dilution",56
same,Fluorescence intesity,"serum of Uterine cervical Ca. patient #24, 1:100 dilution",1234
same,Fluorescence intesity,"serum of Uterine cervical Ca. patient #25, 1:100 dilution",21
same,Fluorescence intesity,"serum of Uterine cervical Ca. patient #26, 1:100 dilution",83
same,Fluorescence intesity,"serum of Uterine cervical Ca. patient #27, 1:100 dilution",36
same,Fluorescence intesity,"serum of Uterine cervical Ca. patient #28, 1:100 dilution",153
same,Fluorescence intesity,"serum of Uterine cervical Ca. patient #29, 1:100 dilution",20
same,Fluorescence intesity,"serum of Uterine cervical Ca. patient #30, 1:100 dilution",35
same,Fluorescence intesity,"serum of Uterine cervical Ca. patient #31, 1:100 dilution",133
same,Fluorescence intesity,"serum of Uterine cervical Ca. patient #32, 1:100 dilution",23
same,Fluorescence intesity,"serum of Uterine cervical Ca. patient #33, 1:100 dilution",93
same,Fluorescence intesity,"serum of Uterine cervical Ca. patient #34, 1:100 dilution",16
same,Fluorescence intesity,"serum of Uterine cervical Ca. patient #35, 1:100 dilution",21
